# Measured values taken from patent publication US10287292B2, “CXCR7 antagonists” (CHEMOCENTRYX, INC., priority 2012, dated 2019).
# Target: CXCR7 receptor (Homo sapiens (Human), UniProt P25106)
# Assay: Serum Binding Analysis: displacement of 125I-labeled SDF-1 from CXCR7 in 100% human serum
# Settings: 125I SDF-1 displacement in 100% human serum, MCF-7 and/or MDA-MB-435S CXCR7 transfected cells, 3 hrs at 4° C.; read-out: Avg Ser IC50
# Procedure: The compounds were combined with cells expressing the CXCR7 receptor (e.g., MCF cells or cells transfected to express CXCR7) in the presence of the 125 I-labeled SDF-1 chemokine as detailed in Determination of IC50 values. Reagents and Cells (see below). The ability of the compounds to displace the labeled chemokine from the CXCR7 receptor sites at multiple concentrations was then determined with the screening process.
# In Table 1, Avg Bind IC50 refers to the Buffer Binding Analysis described below, while Avg Ser IC50 refers to the Serum Binding Analysis described below. All compounds were prepared as described in the Examples above, or by related methods substituting readily available starting materials.
# ^125I-labeled SDF-1 was purchased from Perkin-Elmer Life Sciences, Inc. (Boston, Mass.). The MCF-7 (adenocarcinoma; mammary gland) cell line was obtained from the American Type Culture Collection (ATCC, Manassas, Va.) or and was cultured in DMEM (Mediatech, Herndon, Va.) supplemented with 10% fetal bovine serum (FBS) (HyClone Logan, Utah) and bovine insulin (0.01 mg/mL) (Sigma. St. Louis, Mo.) at 37° C. in a humidified incubator at a 5% CO2/air mixture. CXCR7 transfected MDA-MB-435S were produced as described below. MDA-MB-435S human breast cancer line, was purchased from ATCC, and cultured in DMEM/10% FBS medium. The complete coding sequence of the gene encoding CXCR7 (a.k.a. CCXCKR2, hRDC1), was isolated from MCF-7 cells using μMACs mRNA isolation kit (Miltenyi Biotec, Auburn, Calif.). DNA contamination was removed by DNase digestion via RNeasy columns (Qiagen, Inc., Valencia, Calif.) and cDNA was generated using GeneAmp RNA PCR Core Kit (Applied Biosystems, Foster City. Calif.). PCR of cDNA samples was performed using Taq PCR Master Mix kit (Qiagen. Inc.) and hRDC1 primers harboring 5′ and 3′ Not I sites (hRDC1F 5′ […]-3, hRDC1R 5′-[…]-3′) Not I digested PCR product was ligated into Not I digested pcDNA3.1(+)(Invitrogen, Carlsbad, Calif.) and screened for orientation and sequence confirmed. Plasmid DNA was then isolated from overnight bacterial cultures by Maxiprep (Qiagen, Inc.). Plasmid DNA (10 μg) was added to MDA-MB-435s cells and cells were electroporated (0.22 kV, 960 uF) via Gene Pulser (Biorad laboratories, Hercules, Calif.). 48 hr post-electroporation, cells were transferred to selection medium (600 ug/ml G418).
# In order to more properly assess the binding efficacy of the compounds, radioligand binding assays were carried out in the presence of 100% human serum to more accurately reflect the in vivo environment. […] Target compounds were tested to determine their ability to bind with CXCR7 sites on MCF-7 and/or MDA-MB-435S CXCR7 transfected cells. Efficiency-maxim/zed radioligand binding using filtration protocols as described in Dairaghi D J, et al., HHV8-encoded vMIP-I selectively engages chemokine receptor CCR5. Agonist and antagonist profiles of viral chemokines., J. Biol. Chem. 1999 Jul. 30; 274(31): 21569-74 and Gosling J, et al., Cutting edge: identification of a novel chemokine receptor that binds dendritic cell- and T cell-active chemokines including ELC, SLC, and TECK, J. Immunol. 2000 Mar. 15; 164(6):2851-6 was used.
# In these assays, MCF-7 and/or MDA-MB-435S cells were interrogated with the target compounds and the ability of these compounds to displace 125 I radiolabeled SDF-1 was assessed using the protocol described in Dairaghi and Gosling. The target compounds were added to the plate to the indicated concentration followed by addition of cells and radiolabeled chemokine (125I SDF-1), both in the following medium (human AB serum with 10 mM HEPES added to stabilize at pH 7.4). All assays were then incubated for 3 hrs at 4° C. with gentle agitation.
# Sequence of CXCR7 receptor (P25106 whole entry): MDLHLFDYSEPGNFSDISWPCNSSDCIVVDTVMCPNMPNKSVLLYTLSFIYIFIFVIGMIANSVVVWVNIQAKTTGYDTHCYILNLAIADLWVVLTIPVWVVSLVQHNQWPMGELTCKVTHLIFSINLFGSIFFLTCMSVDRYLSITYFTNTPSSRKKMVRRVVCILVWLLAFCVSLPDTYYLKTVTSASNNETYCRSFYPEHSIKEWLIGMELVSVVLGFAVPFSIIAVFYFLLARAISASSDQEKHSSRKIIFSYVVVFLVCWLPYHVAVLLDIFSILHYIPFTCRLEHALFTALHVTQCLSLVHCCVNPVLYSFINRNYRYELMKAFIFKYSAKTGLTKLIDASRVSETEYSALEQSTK
row,Structure (SMILES),IC50 [µM]
1,Cc1nc(C(=O)N[C@H]2CCN(c3nccn4ccnc34)C2)nn1-c1ccc(F)cc1 [Compound 1.001],≤ 0.5
2,N#Cc1ccc(-n2cnc(C(=O)N[C@H]3CCN(c4nccn5ccnc45)C3)n2)cc1 [Compound 1.002],2.5 to 15
3,O=C(N[C@H]1CCN(c2nccn3cccc23)C1)c1ncn(-c2ccc(F)cc2)n1 [Compound 1.003],≤ 0.5
4,Cc1ccc(-n2cnc(C(=O)N[C@H]3CCN(c4nccn5ccnc45)C3)n2)cc1 [Compound 1.004],0.5 to 2.5
5,CS(=O)(=O)c1ccc(-n2cnc(C(=O)N[C@H]3CCN(c4nccn5ccnc45)C3)n2)cc1 [Compound 1.005],2.5 to 15
6,O=C(N[C@H]1CCN(c2nccn3ccnc23)C1)c1ncn(-c2ccccc2F)n1 [Compound 1.006],≤ 0.5
7,CC(C)c1cn2cccc2c(N2CC[C@H](NC(=O)c3ncn(-c4ccc(F)cc4)n3)C2)n1 [Compound 1.007],0.5 to 2.5
8,CC(C)c1cn2cccc2c(N2CC[C@H](NC(=O)c3ncn(-c4ccccc4)n3)C2)n1 [Compound 1.008],0.5 to 2.5
9,CC(C)c1cn2cccc2c(N2CC[C@H](NC(=O)c3csc(N4CCC(O)CC4)n3)C2)n1 [Compound 1.009],≤ 0.5
10,O=C(N[C@@H]1CCN(c2nccn3ccnc23)C1)c1ncn(-c2ccc(F)cc2)n1 [Compound 1.010],0.5 to 2.5
11,O=C(N[C@H]1CCN(c2nccn3ccnc23)C1)c1ccc(N2CCC(O)CC2)nn1 [Compound 1.011],2.5 to 15
12,CCc1cn2cccc2c(N2CC[C@H](NC(=O)c3csc(N4CCC(O)CC4)n3)C2)n1 [Compound 1.012],≤ 0.5
13,CCc1cn2cccc2c(N2CC[C@H](NC(=O)c3ncn(-c4ccc(F)cc4)n3)C2)n1 [Compound 1.013],≤ 0.5
14,O=C(N[C@H]1CCN(c2nccn3ccnc23)C1)c1ncn(-c2ccc(F)c(F)c2)n1 [Compound 1.014],≤ 0.5
15,CCc1cn2cccc2c(N2CC[C@H](NC(=O)c3ncn(-c4ccccc4)n3)C2)n1 [Compound 1.015],≤ 0.5
16,O=C(N[C@H]1CCN(c2nccn3ccnc23)C1)c1ncn(-c2cccc(F)c2)n1 [Compound 1.016],≤ 0.5
17,O=C(N[C@H]1CCN(c2nccn3cccc23)C1)c1cn(-c2ccccc2)nn1 [Compound 1.017],≤ 0.5
18,O=C(N[C@H]1CCN(c2nccn3nccc23)C1)c1ncn(-c2ccccc2)n1 [Compound 1.018],2.5 to 15
19,Cc1ccc2nc(C(=O)N[C@H]3CCN(c4nc(C)cn5cccc45)C3)ncc2c1 [Compound 1.019],≤ 0.5

row,Structure (SMILES),IC50 [µM]
1,Cc1cn2cccc2c(N2CC[C@H](NC(=O)c3ncn(-c4ccc(F)cc4)n3)C2)n1 [Compound 1.020],≤ 0.5
2,Cc1cn2cccc2c(N2CC[C@H](NC(=O)c3noc(-c4ccccc4)n3)C2)n1 [Compound 1.021],≤ 0.5
3,Cc1cn2cccc2c(N2CC[C@H](NC(=O)c3ncn(-c4ccc(Cl)cc4)n3)C2)n1 [Compound 1.022],≤ 0.5
4,Cc1cn2cccc2c(N2CC[C@H](NC(=O)c3csc(-c4ccccc4)n3)C2)n1 [Compound 1.023],≤ 0.5
5,Cc1cn2cccc2c(N2CC[C@H](NC(=O)c3coc(-c4ccccc4)n3)C2)n1 [Compound 1.024],≤ 0.5
6,Cc1cn2cccc2c(N2CC[C@H](NC(=O)c3csc(N4CCCC4)n3)C2)n1 [Compound 1.025],≤ 0.5
7,O=C(N[C@H]1CCN(c2nccn3ccnc23)C1)c1csc(N2CCC2)n1 [Compound 1.026],≤ 0.5
8,O=C(N[C@H]1CCN(c2nccn3cccc23)C1)c1ncc(C2CCCC2)cn1 [Compound 1.028],≤ 0.5
9,Cc1cn2cccc2c(N2CC[C@H](NC(=O)c3ccn(-c4ccc(Cl)cc4)n3)C2)n1 [Compound 1.029],≤ 0.5
10,Cc1cn2cccc2c(N2CC[C@H](NC(=O)c3cn(-c4ccccc4)cn3)C2)n1 [Compound 1.030],≤ 0.5
11,Cc1cn2ccnc2c(N2CC[C@H](NC(=O)c3cn(-c4ccccc4)cn3)C2)n1 [Compound 1.031],≤ 0.5
12,Cc1cn2ccnc2c(N2CC[C@H](NC(=O)c3ncn(-c4ccccc4)n3)C2)n1 [Compound 1.032],≤ 0.5
13,CC(O)c1cnc(C(=O)N[C@H]2CCN(c3nccn4cccc34)C2)nc1 (stereo partly drawn) [Compound 1.033],0.5 to 2.5
14,O=C(N[C@H]1CCN(c2nccn3ccnc23)C1)c1csc(N2CCCC2)n1 [Compound 1.034],≤ 0.5
15,O=C(N[C@H]1CCN(c2nccn3cnnc23)C1)c1cn(-c2ccccc2)cn1 [Compound 1.035],≤ 0.5
16,O=C(N[C@H]1CCN(c2nccn3ccnc23)C1)c1cn(-c2ccccc2)cn1 [Compound 1.036],≤ 0.5
17,Cc1cn2cccc2c(N2CC[C@H](NC(=O)c3csc(N4CCC(O)CC4)n3)C2)n1 [Compound 1.037],≤ 0.5
18,O=C(N[C@H]1CCN(c2nccn3cccc23)C1)c1csc(N2CCCC2)n1 [Compound 1.038],≤ 0.5
19,O=C(N[C@H]1CCN(c2nccn3cccc23)C1)c1cn(-c2ccccc2)cn1 [Compound 1.039],≤ 0.5

row,Structure (SMILES),IC50 [µM]
1,Cc1cn2cccc2c(N2CC[C@H](NC(=O)c3ncn(-c4ccccc4)n3)C2)n1 [Compound 1.040],≤ 0.5
2,Cc1cn2cccc2c(N2CC[C@H](NC(=O)c3ccn(-c4ccc(F)cc4)n3)C2)n1 [Compound 1.041],≤ 0.5
3,NC(=O)C1(NC(=O)c2ccn(-c3ccc(F)cc3)n2)CCN(c2nccn3cccc23)C1 (stereo not drawn) [Compound 1.042],≤ 0.5
4,O=C(NC1(C(=O)O)CCN(c2nccn3cccc23)C1)c1ccn(-c2ccc(F)cc2)n1 (stereo not drawn) [Compound 1.043],2.5 to 15
5,Cc1ccc2nc(C(=O)N[C@H]3CCN(c4nccn5cnnc45)C3)ncc2c1 [Compound 1.044],≤ 0.5
6,Cc1ccccc1-c1nc(C(=O)N[C@H]2CCN(c3nccn4ccnc34)C2)cs1 [Compound 1.045],≤ 0.5
7,Cc1ccccc1-c1nc(C(=O)N[C@H]2CCN(c3nccn4cccc34)C2)cs1 [Compound 1.046],≤ 0.5
8,Cc1ccc2nc(C(=O)N[C@H]3CCN(c4nccn5ccnc45)C3)ncc2c1 [Compound 1.048],≤ 0.5
9,CN(C)c1cnc(C(=O)N[C@H]2CCN(c3nccn4cccc34)C2)cn1 [Compound 1.049],≤ 0.5
10,O=C(NC1(CO)CCN(c2nccn3ccnc23)C1)c1ncn(-c2ccccc2)n1 (stereo not drawn) [Compound 1.050],≤ 0.5
11,O=C(NC1(CO)CCN(c2nccn3cccc23)C1)c1ncn(-c2ccccc2)n1 (stereo not drawn) [Compound 1.051],≤ 0.5
12,O=C(N[C@H]1CCN(c2nccn3cccc23)C1)c1cnc(C2CC2)cn1 [Compound 1.052],≤ 0.5
13,O=C(N[C@H]1CCN(c2nccn3cccc23)C1)c1ncc2cc(Cl)ccc2n1 [Compound 1.053],≤ 0.5
14,Cc1ccccc1-n1ccc(C(=O)N[C@H]2CCN(c3nccn4cnnc34)C2)n1 [Compound 1.054],≤ 0.5
15,CC1(O)CCN(c2nc(C(=O)N[C@H]3CCN(c4nccn5cccc45)C3)cs2)CC1 [Compound 1.055],≤ 0.5
16,CC1(O)CCN(c2nc(C(=O)N[C@H]3CCN(c4nccn5ccnc45)C3)cs2)CC1 [Compound 1.056],0.5 to 2.5
17,Cc1ccccc1-n1ccc(C(=O)N[C@H]2CCN(c3nccn4ccnc34)C2)n1 [Compound 1.057],≤ 0.5
18,O=C(NC1(CO)CCN(c2nccn3ccnc23)C1)c1csc(N2CCC(O)CC2)n1 (stereo not drawn) [Compound 1.058],≤ 0.5
19,O=C(NC1(CO)CCN(c2nccn3ccnc23)C1)c1ccn(-c2ccc(F)cc2)n1 (stereo not drawn) [Compound 1.059],≤ 0.5
